Source: article PMC6543911, “Discovery of Coumarin as Microtubule Affinity-Regulating Kinase 4 Inhibitor That Sensitize Hepatocellular Carcinoma to Paclitaxel” (Frontiers in Chemistry, 2019)

Tested on: HepG2 cells
Test: Cell apoptosis assay (Annexin V-FITC/PI flow cytometry) in HepG2 cells
Assay type: cell-based
Conditions: 2.5 μM alone
Protocol: HCC cells (2 × 10^5 cells/well) were plated in a 6-well plate and treated with samples at 37°C for 36 h. After incubation, the cells were harvested and washed with ice-cold PBS. Annexin V-FITC-PI apoptosis detection kit (Abcam, USA) was used for a direct observation of viable, early apoptotic, and late apoptotic cells. Annexin V-FITC and propidium iodide were added according to the manufacturer's instructions, and the samples were incubated in the dark for 15 min. The apoptosis ratio was analyzed using BD FACSCalibur flow cytometry.

| Structure (SMILES) | apoptosis, single agent |
| --- | --- |
| CC(=O)O[C@H]1C(=O)[C@@]2(C)[C@H]([C@H](OC(=O)c3ccccc3)[C@]3(O)C[C@H](OC(=O)[C@H](O)[C@@H](NC(=O)c4ccccc4)c4ccccc4)C(C)=C1C3(C)C)[C@]1(OC(C)=O)CO[C@@H]1C[C@@H]2O [paclitaxel] | unable to trigger distinct apoptosis |

Target: T1, MARK4 catalytic domain (Homo sapiens, UniProt Q96L34)
T1 construct: The recombinant MARK4 catalytic domain was used as kinase; made in house; host or cells: E. coli BL21 (DE3)
Test: Kinase activity assay (ADP-Glo) using MARK4 as enzyme
Assay type: biochemical
Conditions: MARK4 5 nM, 100 μM ATP, 5 μM MAP4, 30 min; duplicate, means ± SEM
Protocol: MARK4 catalytic domain sequence was subcloned into pET-28a vector. Protein expression in E. coli. BL21 (DE3) was induced by IPTG overnight at 16°C, and the cells were then pelleted by centrifugation at 4,000 rpm for 15 min and resuspended in 20 mL buffer (20 mM Tris-HCl, 150 mM NaCl, 25 mM imidazole pH 8.0). Proteins were purified by nickel-affinity chromatography followed by thrombin cleavage. The proteins were further purified by size-exclusion chromatography using a Superdex 75 column (GE Healthcare).
The kinase activity of MARK4 was measured via ADP-Glo™ kinase assay kit (Promega, USA) under manufacturer's instruction. The recombinant MARK4 catalytic domain was used as kinase. MARK4 (5 nM) activity was tested in a reaction (10 μL) containing 25 mM Tris (pH 7.6), 10 mM MgCl2, 150 mM NaCl, 1 mM EDTA, 1 mM DTT, 100 μM ATP, 5 μM MAP4 and varied concentrations of samples for 30 min. The reaction progress was monitored on Thermo Scientific Varioskan Flash Multimode Reader. Each data point was collected in duplicate and kinetic parameters were obtained using GraphPad Prism v6.0 software.

T1 sequence (Q96L34 59-310 limits assumed): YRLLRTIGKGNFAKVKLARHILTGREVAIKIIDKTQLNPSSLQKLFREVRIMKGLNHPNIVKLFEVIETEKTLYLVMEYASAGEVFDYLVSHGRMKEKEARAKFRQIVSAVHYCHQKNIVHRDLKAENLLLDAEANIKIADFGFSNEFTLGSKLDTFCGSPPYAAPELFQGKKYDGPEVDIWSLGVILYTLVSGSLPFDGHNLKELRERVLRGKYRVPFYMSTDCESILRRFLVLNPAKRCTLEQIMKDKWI

| Structure (SMILES) | IC50 [µM] |
| --- | --- |
| COc1cccc2cc(C(=O)c3ccccc3)c(=O)oc12 [Compound 48] | 2.1 ± 0.372 |
| COc1cccc(-c2cc3cc(Cl)cc(Cl)c3oc2=O)c1 [6,8-dichloro-3-(3-methoxyphenyl)-2H-chromen-2-one] | 7.8 |
| COc1ccc(-c2cc3cc(Cl)ccc3oc2=O)cc1OC [Compound 18] | 31 ± 2.81 |
| COc1cccc(-c2cc3cccc(OC)c3oc2=O)c1 [Compound 13] | 8.98 ± 2.74 |
| O=c1ccc2cc(Cl)cc(Cl)c2o1 [Compound 3] | > 50 |
| O=C(c1ccccc1)c1cc2cc(Cl)ccc2oc1=O [Compound 49] | 4.12 ± 0.605 |
| O=c1cc(O)c2ccccc2o1 [Compound 62] | > 50 |
| COc1cc(Br)cc2cc(-c3ccccc3)c(=O)oc12 [Compound 38] | 40.9 ± 4.04 |
| COc1ccc(-c2cc3cc(Cl)cc(Cl)c3oc2=O)cc1OC [Compound 23] | 17.4 ± 2.69 |
| O=C(c1ccccc1)c1cc2ccccc2oc1=O [Compound 52] | 27 ± 3.65 |
| COc1cc(OC)c2c(-c3ccccc3)cc(=O)oc2c1 [Compound 60] | > 50 |
| COc1cccc2cc(C(C)=O)c(=O)oc12 [Compound 47] | 14.6 ± 2.99 |
| COc1ccccc1-c1cc2cc(Cl)ccc2oc1=O [Compound 20] | > 50 |
| COc1ccc(-c2cc3ccccc3sc2=O)cc1OC [Compound 67, 3-(3,4-Dimethoxyphenyl)-2H-thiochromen-2-one] | 11.1 ± 0.786 |
| Cc1cc(=O)oc2cc(OCc3ccccc3)cc(OCc3ccccc3)c12 [Compound 59] | > 50 |
| COc1cc(Br)cc2cc(-c3ccc(Cl)cc3)c(=O)oc12 [Compound 39] | 16.9 ± 4.26 |
| O=c1oc2ccccc2cc1-c1ccc(F)cc1 [Compound 32] | 37.7 ± 6.07 |
| O=c1cc(-c2ccccc2)c2c(OCc3ccccc3)cc(OCc3ccccc3)cc2o1 [Compound 61] | > 50 |

| Structure (SMILES) | IC50 [µM] |
| --- | --- |
| COc1ccc2c(C)cc(=O)oc2c1 [Compound 55] | > 50 |
| O=c1ccc2cc(Cl)ccc2o1 [Compound 2] | > 50 |
| O=c1oc2c(Cl)cc(Cl)cc2cc1-c1ccccc1 [Compound 27] | 42.1 ± 3.99 |
| COc1cc(Br)cc2cc(-c3ccc(F)cc3)c(=O)oc12 [Compound 40] | 38.8 ± 4.83 |
| O=c1cc(-c2ccccc2)c2c(O)cc(O)cc2o1 [Compound 57] | > 50 |
| O=c1cc(OCc2ccccc2)c2ccccc2o1 [Compound 63] | > 50 |
| COc1cc(OC)c2c(C)cc(=O)oc2c1 [Compound 58] | > 50 |
| O=c1oc2ccc(Cl)cc2cc1-c1ccc(Cl)cc1 [Compound 22] | 28 ± 2.01 |
| Cc1ccc2oc(=O)ccc2c1 [Compound 6] | > 50 |
| COc1cc(Br)cc2cc(-c3cccc(O)c3)c(=O)oc12 [Compound 45] | > 50 |
| COc1ccc(OC)c(-c2cc3cc(Br)cc(OC)c3oc2=O)c1 [Compound 43] | > 50 |
| O=c1ccc2ccccc2o1 [Compound 4] | 41 ± 5.4 |
| COc1cc(Br)cc2cc(-c3cccnc3)c(=O)oc12 [Compound 44] | > 50 |
| COc1ccc(-c2cc3ccccc3oc2=O)cc1 [Compound 29] | 37.4 ± 2.84 |
| COc1ccc(-c2cc3cc(Br)cc(OC)c3oc2=O)cc1OC [Compound 33] | 46.3 ± 3.04 |
| O=c1oc2ccccc2cc1-c1ccccc1 [Compound 31] | 35 ± 5.78 |
| COc1ccc(-c2cc3cccc(OC)c3oc2=O)cc1 [Compound 12] | 22.8 ± 4.61 |

Other lines, results leading:

| IC50 [µM] | Structure (SMILES) |
| --- | --- |
| 25.5 ± 1.01 | COc1cc(-c2cc3cc(Cl)ccc3oc2=O)cc(OC)c1OC [Compound 21] |
| 40.4 ± 2.87 | COc1cc(=O)oc2ccccc12 [Compound 64] |
| > 50 | COc1ccccc1-c1cc2cc(Cl)cc(Cl)c2oc1=O [Compound 26] |
| 25.9 ± 2.73 | CC(=O)c1cc2ccccc2oc1=O [Compound 51] |
| 39.3 ± 3.12 | COc1cccc(-c2cc3ccccc3oc2=O)c1 [Compound 30] |
| > 50 | CC(C)(C)c1cc(C(C)(C)C)c2oc(=O)ccc2c1 [Compound 9] |
| > 50 | COc1cccc2cc(-c3ccc(Cl)cc3)c(=O)oc12 [Compound 16] |
| 35 ± 3.73 | COc1ccc2oc(=O)ccc2c1 [Compound 5] |
| > 50 | COc1ccc(-c2cc3ccccc3oc2=O)cc1OC [Compound 28] |
| 37.8 ± 5.43 | COc1cc(-c2cc3cc(Br)cc(OC)c3oc2=O)cc(OC)c1OC [Compound 37] |
| 31.5 ± 2.28 | COc1cccc2cc(-c3ccccc3)c(=O)oc12 [Compound 15] |
| > 50 | COc1cc(Br)cc2cc(-c3ccc(OC(C)=O)cc3)c(=O)oc12 [Compound 42] |
| 25.1 ± 5.81 | COc1ccc2ccc(=O)oc2c1 [Compound 10] |
| 25 ± 2.4 | CC(C)(C)C(=O)c1cc2ccccc2oc1=O [Compound 53] |
| > 50 | Cc1cc(=O)oc2cc(O)cc(O)c12 [Compound 56] |
| 36.1 ± 1.65 | O=c1sc2ccccc2cc1-c1ccccc1 [Compound 65] |
| 37.9 ± 3.45 | O=c1ccc2cc([N+](=O)[O-])ccc2o1 [Compound 8] |

| IC50 [µM] | Structure (SMILES) |
| --- | --- |
| 35.6 ± 3.9 | COc1ccc(-c2cc3ccccc3sc2=O)cc1 [Compound 66, 3-(4-Methoxyphenyl)-2H-thiochromen-2-one] |
| > 50 | COc1ccc(-c2cc3cc(Br)cc(OC)c3oc2=O)cc1 [Compound 34] |
| 27 ± 2.38 | COc1ccc(-c2cc3cc(Cl)ccc3oc2=O)cc1 [Compound 19] |
| 32.2 ± 2.75 | O=c1sc2ccccc2cc1-c1ccc(F)cc1 [Compound 68, 3-(4-Fluorophenyl)-2H-thiochromen-2-one] |
| 33.6 ± 2.75 | COc1cc(-c2cc3cc(Br)cc(OC)c3oc2=O)c(OC)c(OC)c1OC [Compound 36] |
| 29.7 ± 4.21 | COc1ccc(-c2cc3cccc(OC)c3oc2=O)cc1OC [Compound 11] |
| 34.5 ± 3.3 | COc1cc(-c2cc3cccc(OC)c3oc2=O)cc(OC)c1OC [Compound 14] |
| > 50 | COc1cccc2ccc(=O)oc12 [Compound 1] |
| > 50 | COc1cccc2cc(-c3ccc(F)cc3)c(=O)oc12 [Compound 17] |
| 21.3 ± 2 | O=C(c1ccccc1)c1cc2c(ccc3ccccc32)oc1=O [Compound 54] |
| > 50 | COc1cc(Br)cc2cc(-c3cccc(OC(C)=O)c3)c(=O)oc12 [Compound 41] |
| > 50 | COc1cc(Br)cc2cc(-c3ccc(O)cc3)c(=O)oc12 [Compound 46] |
| 10 ± 3.65 | COc1ccc(-c2cc3cc(Cl)cc(Cl)c3oc2=O)cc1 [Compound 24] |
| 12.8 ± 1.25 | COc1cccc(-c2cc3cc(Br)cc(OC)c3oc2=O)c1 [Compound 35] |
| > 50 | CCOc1cccc2ccc(=O)oc12 [Compound 7] |
| 7.76 ± 2.93 | COc1cccc(-c2cc3cc(Cl)cc(Cl)c3oc2=O)c1 [Compound 25] |

Tested on: HepG2 cells
Test: Cell viability assay (MTT) in HepG2 cells
Assay type: cell-based
Conditions: HepG2 cells transiently transfected with MARK4-knockdown vs control vectors
Protocol: HepG2 and SMMC-7721 cells were cultured in DMEM medium (Gibco) supplemented with 10% FBS (Gibco, USA). For transient transfection, cells were transfected with DNA by Lipofectamine 2000 (Thermo fisher, USA).
HCC cells (100 μL/each well, 20,000 cells/mL) were seeded in a 96-well culture plate and allowed to grow for 24 h in DMEM medium supplemented with 10% FBS and 1% penicillin/streptomycin sulfate. The cells were then treated with drugs or vehicle control and incubated in a 5% CO2 incubator for indicated time. At the end of incubation, 10 μL of MTT stock solution (5 mg/mL) was added into each well. The plate was continued to be incubated at 37°C for 4 h before the medium was removed. Then, DMSO (100 μL) was added into each well, followed by thorough shaking. The absorbance of the formazan product was measured at 570 nm on Thermo Scientific Varioskan Flash Multimode Reader. The IC50 value was obtained by fitting dose-response data to a three parametric non-linear regression model using GraphPad Prism 6.0 software.

| Structure (SMILES) | sensitivity in MARK4-knockdown cells |
| --- | --- |
| CC(=O)O[C@H]1C(=O)[C@@]2(C)[C@H]([C@H](OC(=O)c3ccccc3)[C@]3(O)C[C@H](OC(=O)[C@H](O)[C@@H](NC(=O)c4ccccc4)c4ccccc4)C(C)=C1C3(C)C)[C@]1(OC(C)=O)CO[C@@H]1C[C@@H]2O [paclitaxel] | increased sensitivity |

Same assay, conditions: Homo sapiens; HepG2 cells, MTT

| IC50 [µM] | Structure (SMILES) |
| --- | --- |
| 15.9 | COc1cccc(-c2cc3cc(Cl)cc(Cl)c3oc2=O)c1 [6,8-dichloro-3-(3-methoxyphenyl)-2H-chromen-2-one] |
